This is an account of results in patent US20250345391A1, “COMPOSITIONS AND METHODS FOR THE TREATMENT OF SEPSIS” (Children's Hospital Medical Center, priority 2022, published 2025).

Holding throughout (format): in vivo, Male C57BL/6 mice
One test relates to lung sections. In words: Lung histopathology after CLP sepsis. Particulars: 6 h after CLP; colivelin 100 or 200 μg/kg i.p. at 1 h after CLP; vs vehicle. An excerpt: (§1) The investigation conformed to the National Institutes of Health Guide for the Care and Use of Laboratory Animals (Eighth Edition, 2011) and was approved by the Institutional Animal Care and Use Committee of the Cincinnati Children's Hospital Medical Center. Male C57BL/6 mice were obtained from Charles River Laboratories International, Inc. (Wilmington, MA). Mice were used at 3-5 months of age to mimic the equivalent for human ranges from 20-25 years (29). Male mice only were chosen for the experimentation to avoid interference from female hormonal fluctuations in sepsis responses during the estrous cycle. Mice were housed in pathogen-free conditions under a 10-h light/14-h dark cycle with free access to food and water. Mice were anesthetized with 2.0% isoflurane in 50% oxygen and polymicrobial sepsis was induced by cecal ligation and puncture (CLP) (30). […]
Paraffin-embedded sections of thoracic aortas and lungs were stained with hematoxylin and eosin for morphological evaluation by three independent observers blinded to the treatment groups. Lung injury was also analyzed by a semiquantitative score based on the following histologic features: alveolar capillary congestion, infiltration of red blood cells and inflammatory cells into the airspace, alveolar wall thickness, and hyaline membrane formation (34). […]

Another test has as its system STAT3. In words: Western blot of STAT3 and phosphorylated forms in thoracic aorta after CLP. Particulars: 6 h after CLP. An excerpt:
The investigation conformed to the National Institutes of Health Guide for the Care and Use of Laboratory Animals (Eighth Edition, 2011) and was approved by the Institutional Animal Care and Use Committee of the Cincinnati Children's Hospital Medical Center. Male C57BL/6 mice were obtained from Charles River Laboratories International, Inc. (Wilmington, MA). Mice were used at 3-5 months of age to mimic the equivalent for human ranges from 20-25 years (29). Male mice only were chosen for the experimentation to avoid interference from female hormonal fluctuations in sepsis responses during the estrous cycle. Mice were housed in pathogen-free conditions under a 10-h light/14-h dark cycle with free access to food and water. Mice were anesthetized with 2.0% isoflurane in 50% oxygen and polymicrobial sepsis was induced by cecal ligation and puncture (CLP) (30). After a midline laparotomy, the cecum was exteriorized, ligated and punctured twice with a 23-G needle. The cecum was then returned into the peritoneal cavity and the abdominal incision was closed. After the procedure, mice were randomly assigned to three treatment groups: a vehicle-treated group received distilled water (200 μl/mouse) intraperitoneally (i.p.); a 100 μg colivelin-treated group received the colivelin at 100 μg/kg i.p., and a 200 μg colivelin-treated group received the colivelin at 200 μg/kg i.p. at 1 h after CLP. The intraperitoneal injection was chosen to allow for a rapid uptake and bioavailability of the peptide. All groups of mice also received fluid resuscitation (35 ml/kg normal saline solution subcutaneously) immediately after, at 3 h and 12 h after the CLP procedure. To minimize pain at the surgical incision site, lidocaine hydrochloride (1%, 4 mg/kg total dose) was applied locally immediately after the procedure. […] Mice were then sacrificed at 0, 6 and 18 h after CLP. Blood, lungs, kidneys, liver, and thoracic aortas were collected for biochemical assays.
Subcellular fractionation was performed using a centrifugation model. Tissue samples of lung and thoracic aortas were homogenized in a buffer (50 mg tissue/100 μL) containing 0.32 M sucrose, 10 mM Tris-HCl (pH 7.4), 1 mM EGTA, 2 mM EDTA, 5 mM NaN3, 10 mM β-mercaptoethanol, 2 μM leupeptin, 0.15 μM pepstatin A, 0.2 mM phenylmethanesulfonyl fluoride, 50 mM NaF, 1 mM sodium orthovanadate and 0.4 nM microcystin. Samples were centrifuged at 1000×g for 10 min at 4° C. and the supernatants collected as cytosol extracts, which also contain membrane and mitochondria. The pellets were then solubilized in Triton buffer (1% Triton X-100, 250 mM NaCl, 50 mM Tris HCl at pH 7.5, 3 mM EGTA, 3 mM EDTA, 1 mM phenylme-thanesulfonyl fluoride, 0.1 mM sodium orthovanadate, 10% glycerol, 2 mM p-nitrophenyl phosphate, 0.5% NP-40 and 46 μM aprotinin). The lysates were rocked for 1 h and subsequently centrifuged at 15,000×g for 30 min at 4° C. and the supernatant collected as nuclear extracts. The Bradford protein assay was then used for quantitative determination of total proteins.
Cytosol content of total AMPKα1/α2 and its phosphorylated form pAMPKα1/α2 (Santa Cruz Biotechnology, Dallas, TX, USA), cytosol and nuclear content of STAT3 and its phosphorylated forms pSTAT3(Tyr705) and pSTAT3(Ser727) (Cell Signaling Technology, Danvers, MA, USA) were determined by immunoblot analyses; β-actin was concomitantly probed with mouse anti-β-actin (Santa Cruz Biotechnology) as a loading control for both cytosol and nuclear proteins. Extracts were heated at 70° C. in equal volumes of 4× Protein Sample Loading Buffer. Twenty-five μg of proteins were loaded per lane on a 10% Bis-Tris gel. Proteins were separated electrophoretically and transferred to nitro-cellulose membranes. The immunoreaction was detected by near-infrared fluorescence. Membranes were blocked with Odyssey blocking buffer (LI-COR Biotechnology, Lincoln, NE, USA) and incubated with primary antibodies. […]
On the technique in general: In western blotting, separated proteins are transferred to a membrane and probed.

The test system of a further test is AMPK. In words: Western blot of AMPKα and pAMPKα in thoracic aorta cytosol after CLP. Particulars: 6 h after CLP; colivelin i.p. at 1 h after CLP; vs vehicle; dose-independent.
From the text: as §1, with “water.” for “water. Mice were anesthetized with 2.0% isoflurane in 50% oxygen and polymicrobial sepsis was induced by cecal ligation and puncture (CLP) (30).”
Subcellular fractionation was performed using a centrifugation model. […] The Bradford protein assay was then used for quantitative determination of total proteins.
Cytosol content of total AMPKα1/α2 and its phosphorylated form pAMPKα1/α2 (Santa Cruz Biotechnology, Dallas, TX, USA), cytosol and nuclear content of STAT3 and its phosphorylated forms pSTAT3(Tyr705) and pSTAT3(Ser727) (Cell Signaling Technology, Danvers, MA, USA) were determined by immunoblot analyses; β-actin was concomitantly probed with mouse anti-β-actin (Santa Cruz Biotechnology) as a loading control for both cytosol and nuclear proteins. […] The immunoreaction was detected by near-infrared fluorescence. […]

Test [1] has as its system endothelial glycocalyx and mitochondria of thoracic aortas. Kind of test: Transmission electron microscopy of thoracic aortas with lanthanum staining after CLP. Particulars: 6 h after CLP; colivelin 100 μg/kg i.p. at 1 h after CLP; vs vehicle.
From the text: as §1, with “(30). After a midline laparotomy, the cecum was exteriorized, ligated and punctured twice with a 23-G needle. The cecum was then returned into the peritoneal cavity and the abdominal incision was closed.” for “(30).”
Glycocalyx structure was assessed by transmission electron microscopy (35). […]

Setting [2] is: colivelin i.p. at 1 h after CLP, vs vehicle.

Regarding Colivelin (SALLRSIPAPAGASRLLLLTGEIDLP), the “Microscopic examination of hematoxylin and eosin-stained lung sections” value with lung sections was “reduced infiltration of inflammatory cells and ameliorated alveolar damage”. Besides, the “Nuclear expression of pSTAT3(Tyr705), thoracic aorta” value with STAT3 (colivelin at the highest dose) is on record as “inhibited”. For the same substance, in the test on STAT3 (setting [2]), the “Cytosolic expression of pSTAT3(Ser727), thoracic aorta” value is recorded as “significantly reduced”; the “Cytosolic expression of pSTAT3(Tyr705), thoracic aorta” value was “significantly reduced”; the “Levels of total STAT3 in the cytosol, thoracic aorta” value was “restored”; the “Levels of total STAT3 in the nucleus, thoracic aorta” value is given as “remained unchanged”. Besides, in the test on STAT3 (setting [2]), the “Nuclear expression of pSTAT3(Ser727), thoracic aorta” value is listed as “did not affect”. Further, in the test with AMPK, the “Ratio of the phosphorylated/total forms of AMPKα (p-AMPKα/AMPKα), cytosol of thoracic aortas” value is “significantly increased”. Moreover, in test [1], the “Dense structure of endothelial glycocalyx in thoracic aorta (electron microscopy)” value is on record as “appeared well preserved” and the “Mitochondria in thoracic aorta cells (electron microscopy)” value is given as “appeared normal with dense matrix in all cell types”.
